In ChEMBL document CHEMBL4507284, “Data for DCP probe BI-1230” (2021):

Experiments:
[1] = biological target: Alpha-2B adrenergic receptor (Homo sapiens, UniProt P18089); test: GPCRScan assay: inhibition of Alpha2B; design: radioligand conc. used [nm] 1.5 – 2.0, parental cells HEKT
[2] = biological target: Protease (Human immunodeficiency virus 1) (UniProt Q9YQ12); test: HIV-1 protease Eurofins-Cerep enzyme and uptake assay; details: Compound concentration 10.0 uM
[3] = biological target: 72 kDa type IV collagenase (Homo sapiens) (UniProt P08253); test: MMP-2 (h) Eurofins-Cerep enzyme and uptake assay; details: Compound concentration 10.0 uM
[4] = biological target: Caspase-8 (Homo sapiens) (UniProt Q14790); test: Caspase-8 (h) Eurofins-Cerep enzyme and uptake assay; details: Compound concentration 10.0 uM
[5] = biological target: 5-hydroxytryptamine receptor 1A (Homo sapiens) (UniProt P08908); details: Compound concentration 10.0 uM
[6] = biological target: Beta-3 adrenergic receptor (Homo sapiens, UniProt P13945); test: GPCRScan assay: inhibition of Beta3; design: radioligand conc. used [nm] 0.2 – 0.5, parental cells HEK Flp-In
[7] = biological target: Caspase-6 (Homo sapiens) (UniProt P55212); test: Caspase-6 (h) Eurofins-Cerep enzyme and uptake assay; details: Compound concentration 10.0 uM
[8] = biological target: Sodium-dependent dopamine transporter (Homo sapiens) (UniProt Q01959); details: Compound concentration 10.0 uM
[9] = biological target: Matrilysin (Homo sapiens) (UniProt P09237); test: MMP-7 (h) Eurofins-Cerep enzyme and uptake assay; details: Compound concentration 10.0 uM
[10] = biological target: Disintegrin and metalloproteinase domain-containing protein 17 (Homo sapiens) (UniProt P78536); test: TACE (h) Eurofins-Cerep enzyme and uptake assay; details: Compound concentration 10.0 uM
[11] = biological target: Alpha-1D adrenergic receptor (Homo sapiens) (UniProt P25100); details: Compound concentration 10.0 uM
[12] = biological target: Matrix metalloproteinase-9 (Homo sapiens) (UniProt P14780); test: MMP-9 (h) Eurofins-Cerep enzyme and uptake assay; details: Compound concentration 10.0 uM
[13] = biological target: Cathepsin G (Homo sapiens) (UniProt P08311); test: Cathepsin G (h) Eurofins-Cerep enzyme and uptake assay; details: Compound concentration 10.0 uM
[14] = biological target: Serine/threonine-protein kinase tousled-like 1 (Homo sapiens) (UniProt Q9UKI8); details: Compound concentration 1000.0 nM
Sequence of Serine/threonine-protein kinase tousled-like 1 (Homo sapiens) (Q9UKI8 whole entry): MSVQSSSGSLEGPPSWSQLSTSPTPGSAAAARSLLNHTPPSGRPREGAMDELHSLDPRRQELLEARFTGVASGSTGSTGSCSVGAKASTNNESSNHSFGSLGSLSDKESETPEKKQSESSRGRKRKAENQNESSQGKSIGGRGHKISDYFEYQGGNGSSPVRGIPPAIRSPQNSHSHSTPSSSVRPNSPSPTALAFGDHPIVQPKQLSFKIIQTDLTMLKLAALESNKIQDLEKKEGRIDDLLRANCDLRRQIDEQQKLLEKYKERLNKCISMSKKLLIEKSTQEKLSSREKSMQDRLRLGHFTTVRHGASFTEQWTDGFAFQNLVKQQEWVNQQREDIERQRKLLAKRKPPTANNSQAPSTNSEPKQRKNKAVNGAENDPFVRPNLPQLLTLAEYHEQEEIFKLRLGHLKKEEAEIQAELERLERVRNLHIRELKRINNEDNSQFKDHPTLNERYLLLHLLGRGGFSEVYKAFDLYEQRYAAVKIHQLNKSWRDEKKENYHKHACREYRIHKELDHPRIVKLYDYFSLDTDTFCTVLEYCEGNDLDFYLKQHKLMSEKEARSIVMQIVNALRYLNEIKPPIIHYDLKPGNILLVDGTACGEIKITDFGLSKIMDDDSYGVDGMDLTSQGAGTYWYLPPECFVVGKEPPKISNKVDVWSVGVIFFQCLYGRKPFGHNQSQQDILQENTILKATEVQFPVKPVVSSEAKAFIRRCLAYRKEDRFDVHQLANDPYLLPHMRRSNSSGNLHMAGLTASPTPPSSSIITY

[15] = biological target: Caspase-1 (Homo sapiens) (UniProt P29466); test: Caspase-1 (h) Eurofins-Cerep enzyme and uptake assay; details: Compound concentration 10.0 uM
[16] = biological target: Tryptase (Homo sapiens) (UniProt Q9BZJ3+Q15661+Q9NRR2); test: Tryptase (h) Eurofins-Cerep enzyme and uptake assay; assay type: protein assay; details: Compound concentration 10.0 uM
[17] = biological target: Macrophage metalloelastase (Homo sapiens) (UniProt P39900); test: MMP-12 (h) Eurofins-Cerep enzyme and uptake assay; details: Compound concentration 10.0 uM
[18] = biological target: Cathepsin E (Homo sapiens) (UniProt P14091); test: Cathepsin E Eurofins-Cerep enzyme and uptake assay; details: Mus musculus; Compound concentration 10.0 uM
[19] = biological target: Beta-1 adrenergic receptor (Homo sapiens) (UniProt P08588); details: Compound concentration 10.0 uM
[20] = biological target: D(2) dopamine receptor (Homo sapiens) (UniProt P14416); details: Compound concentration 10.0 uM
[21] = biological target: Muscarinic acetylcholine receptor M5 (Homo sapiens) (UniProt P08912); details: Compound concentration 10.0 uM
[22] = biological target: Matrix metalloproteinase-14 (Homo sapiens) (UniProt P50281); test: MT1-MMP (h) (MMP-14) Eurofins-Cerep enzyme and uptake assay; details: Compound concentration 10.0 uM
[23] = biological target: Dual specificity tyrosine-phosphorylation-regulated kinase 1B (Homo sapiens) (UniProt Q9Y463); details: Compound concentration 1000.0 nM
Sequence of Dual specificity tyrosine-phosphorylation-regulated kinase 1B (Homo sapiens) (Q9Y463 whole entry, looked up): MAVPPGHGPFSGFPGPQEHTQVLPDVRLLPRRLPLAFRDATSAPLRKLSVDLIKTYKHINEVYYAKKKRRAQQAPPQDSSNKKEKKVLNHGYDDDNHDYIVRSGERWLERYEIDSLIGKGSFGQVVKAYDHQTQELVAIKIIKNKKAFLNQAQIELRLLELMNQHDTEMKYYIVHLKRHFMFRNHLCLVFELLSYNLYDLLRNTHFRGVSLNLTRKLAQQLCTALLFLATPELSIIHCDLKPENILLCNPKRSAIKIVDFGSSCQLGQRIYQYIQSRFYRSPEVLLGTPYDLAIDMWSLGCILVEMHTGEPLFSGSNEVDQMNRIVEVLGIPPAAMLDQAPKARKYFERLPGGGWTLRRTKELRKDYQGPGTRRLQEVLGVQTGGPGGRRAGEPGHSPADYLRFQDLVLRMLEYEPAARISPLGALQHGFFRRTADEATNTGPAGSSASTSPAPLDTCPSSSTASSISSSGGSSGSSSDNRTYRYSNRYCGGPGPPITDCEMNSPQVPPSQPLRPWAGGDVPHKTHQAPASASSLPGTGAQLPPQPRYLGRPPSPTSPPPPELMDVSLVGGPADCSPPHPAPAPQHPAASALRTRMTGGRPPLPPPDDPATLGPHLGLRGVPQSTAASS

[24] = biological target: Beta-secretase 1 (Homo sapiens) (UniProt P56817); test: BACE-1 (h) (β-secretase) Eurofins-Cerep enzyme and uptake assay; details: Compound concentration 10.0 uM
[25] = biological target: Dipeptidyl peptidase 4 (Homo sapiens) (UniProt P27487); test: Dipeptidyl peptidase IV (h) (DPP-IV) Eurofins-Cerep enzyme and uptake assay; details: Compound concentration 10.0 uM
[26] = biological target: Trypsin (Homo sapiens) (UniProt P07477+P07478+P35030); test: Trypsin (h) Eurofins-Cerep enzyme and uptake assay; assay type: protein assay; details: Compound concentration 10.0 uM
[27] = biological target: Alpha-2C adrenergic receptor (Homo sapiens, UniProt P18825); test: GPCRScan assay: inhibition of Alpha2C; design: radioligand conc. used [nm] 0.5 – 1.0, parental cells stable MDCK
Sequence of Alpha-2C adrenergic receptor (P18825 whole entry): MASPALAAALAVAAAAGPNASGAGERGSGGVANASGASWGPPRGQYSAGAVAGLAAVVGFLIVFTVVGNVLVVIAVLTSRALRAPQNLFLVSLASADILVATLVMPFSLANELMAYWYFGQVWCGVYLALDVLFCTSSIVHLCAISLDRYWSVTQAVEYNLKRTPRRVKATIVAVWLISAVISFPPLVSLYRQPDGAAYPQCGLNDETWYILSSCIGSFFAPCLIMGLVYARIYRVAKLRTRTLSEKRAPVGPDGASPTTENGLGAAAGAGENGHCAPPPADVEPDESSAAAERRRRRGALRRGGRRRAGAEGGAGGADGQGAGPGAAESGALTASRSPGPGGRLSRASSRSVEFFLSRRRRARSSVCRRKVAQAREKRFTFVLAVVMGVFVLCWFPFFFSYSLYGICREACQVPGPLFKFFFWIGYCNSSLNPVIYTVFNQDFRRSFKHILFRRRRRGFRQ

[28] = biological target: Cathepsin S (Homo sapiens) (UniProt P25774); test: Cathepsin S (h) Eurofins-Cerep enzyme and uptake assay; details: Compound concentration 10.0 uM
[29] = biological target: Chymase (Homo sapiens) (UniProt P23946); test: Chymase (h) Eurofins-Cerep enzyme and uptake assay; details: Compound concentration 10.0 uM
[30] = biological target: Neutrophil collagenase (Homo sapiens) (UniProt P22894); test: MMP-8 (h) Eurofins-Cerep enzyme and uptake assay; details: Compound concentration 10.0 uM
[31] = biological target: Angiotensin-converting enzyme (Homo sapiens) (UniProt P12821); test: ACE (h) Eurofins-Cerep enzyme and uptake assay; details: Compound concentration 10.0 uM
Sequence of Angiotensin-converting enzyme (Homo sapiens) (P12821 whole entry): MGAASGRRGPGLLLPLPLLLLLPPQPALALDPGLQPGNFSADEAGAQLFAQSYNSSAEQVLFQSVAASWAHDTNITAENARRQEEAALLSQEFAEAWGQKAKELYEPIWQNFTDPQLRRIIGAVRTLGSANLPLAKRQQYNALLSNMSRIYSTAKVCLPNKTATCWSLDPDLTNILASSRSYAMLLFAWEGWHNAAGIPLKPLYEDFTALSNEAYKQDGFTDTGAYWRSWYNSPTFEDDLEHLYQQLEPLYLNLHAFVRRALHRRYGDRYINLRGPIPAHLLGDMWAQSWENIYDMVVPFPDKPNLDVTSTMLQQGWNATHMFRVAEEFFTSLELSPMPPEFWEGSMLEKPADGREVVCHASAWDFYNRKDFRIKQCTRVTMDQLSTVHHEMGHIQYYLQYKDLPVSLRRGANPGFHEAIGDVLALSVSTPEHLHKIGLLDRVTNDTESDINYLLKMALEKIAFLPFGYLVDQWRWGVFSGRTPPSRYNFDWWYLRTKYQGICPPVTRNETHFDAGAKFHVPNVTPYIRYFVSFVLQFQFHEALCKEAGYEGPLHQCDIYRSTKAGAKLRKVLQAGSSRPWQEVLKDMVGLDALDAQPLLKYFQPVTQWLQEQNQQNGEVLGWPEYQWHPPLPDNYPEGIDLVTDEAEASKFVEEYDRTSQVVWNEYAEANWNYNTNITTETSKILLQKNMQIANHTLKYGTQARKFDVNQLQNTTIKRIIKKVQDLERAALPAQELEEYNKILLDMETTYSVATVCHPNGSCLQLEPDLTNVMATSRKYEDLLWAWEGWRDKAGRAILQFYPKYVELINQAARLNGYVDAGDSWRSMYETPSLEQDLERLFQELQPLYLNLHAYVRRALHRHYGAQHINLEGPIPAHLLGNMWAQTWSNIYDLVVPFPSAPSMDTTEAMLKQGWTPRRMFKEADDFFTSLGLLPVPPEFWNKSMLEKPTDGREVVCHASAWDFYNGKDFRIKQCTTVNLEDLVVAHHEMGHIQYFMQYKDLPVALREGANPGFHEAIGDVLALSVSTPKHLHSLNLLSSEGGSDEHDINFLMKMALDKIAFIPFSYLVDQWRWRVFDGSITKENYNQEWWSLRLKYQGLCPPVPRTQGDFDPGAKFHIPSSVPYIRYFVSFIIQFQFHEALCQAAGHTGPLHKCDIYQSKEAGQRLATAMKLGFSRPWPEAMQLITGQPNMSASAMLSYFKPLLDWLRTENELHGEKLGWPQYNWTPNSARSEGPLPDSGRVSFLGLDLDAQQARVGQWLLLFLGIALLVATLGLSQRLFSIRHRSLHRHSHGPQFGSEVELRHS

[32] = biological target: Interstitial collagenase (Homo sapiens) (UniProt P03956); test: MMP-1 (h) Eurofins-Cerep enzyme and uptake assay; details: Compound concentration 10.0 uM
[33] = biological target: Endothelin-converting enzyme 1 (Homo sapiens) (UniProt P42892); test: ECE-1 (h) Eurofins-Cerep enzyme and uptake assay; details: Compound concentration 10.0 uM
[34] = biological target: Collagenase 3 (Homo sapiens) (UniProt P45452); test: MMP-13 (h) Eurofins-Cerep enzyme and uptake assay; details: Compound concentration 10.0 uM
[35] = biological target: Myosin light chain kinase, smooth muscle (Homo sapiens) (UniProt Q15746); details: Compound concentration 1000.0 nM
Sequence of Myosin light chain kinase, smooth muscle (Homo sapiens) (Q15746 whole entry): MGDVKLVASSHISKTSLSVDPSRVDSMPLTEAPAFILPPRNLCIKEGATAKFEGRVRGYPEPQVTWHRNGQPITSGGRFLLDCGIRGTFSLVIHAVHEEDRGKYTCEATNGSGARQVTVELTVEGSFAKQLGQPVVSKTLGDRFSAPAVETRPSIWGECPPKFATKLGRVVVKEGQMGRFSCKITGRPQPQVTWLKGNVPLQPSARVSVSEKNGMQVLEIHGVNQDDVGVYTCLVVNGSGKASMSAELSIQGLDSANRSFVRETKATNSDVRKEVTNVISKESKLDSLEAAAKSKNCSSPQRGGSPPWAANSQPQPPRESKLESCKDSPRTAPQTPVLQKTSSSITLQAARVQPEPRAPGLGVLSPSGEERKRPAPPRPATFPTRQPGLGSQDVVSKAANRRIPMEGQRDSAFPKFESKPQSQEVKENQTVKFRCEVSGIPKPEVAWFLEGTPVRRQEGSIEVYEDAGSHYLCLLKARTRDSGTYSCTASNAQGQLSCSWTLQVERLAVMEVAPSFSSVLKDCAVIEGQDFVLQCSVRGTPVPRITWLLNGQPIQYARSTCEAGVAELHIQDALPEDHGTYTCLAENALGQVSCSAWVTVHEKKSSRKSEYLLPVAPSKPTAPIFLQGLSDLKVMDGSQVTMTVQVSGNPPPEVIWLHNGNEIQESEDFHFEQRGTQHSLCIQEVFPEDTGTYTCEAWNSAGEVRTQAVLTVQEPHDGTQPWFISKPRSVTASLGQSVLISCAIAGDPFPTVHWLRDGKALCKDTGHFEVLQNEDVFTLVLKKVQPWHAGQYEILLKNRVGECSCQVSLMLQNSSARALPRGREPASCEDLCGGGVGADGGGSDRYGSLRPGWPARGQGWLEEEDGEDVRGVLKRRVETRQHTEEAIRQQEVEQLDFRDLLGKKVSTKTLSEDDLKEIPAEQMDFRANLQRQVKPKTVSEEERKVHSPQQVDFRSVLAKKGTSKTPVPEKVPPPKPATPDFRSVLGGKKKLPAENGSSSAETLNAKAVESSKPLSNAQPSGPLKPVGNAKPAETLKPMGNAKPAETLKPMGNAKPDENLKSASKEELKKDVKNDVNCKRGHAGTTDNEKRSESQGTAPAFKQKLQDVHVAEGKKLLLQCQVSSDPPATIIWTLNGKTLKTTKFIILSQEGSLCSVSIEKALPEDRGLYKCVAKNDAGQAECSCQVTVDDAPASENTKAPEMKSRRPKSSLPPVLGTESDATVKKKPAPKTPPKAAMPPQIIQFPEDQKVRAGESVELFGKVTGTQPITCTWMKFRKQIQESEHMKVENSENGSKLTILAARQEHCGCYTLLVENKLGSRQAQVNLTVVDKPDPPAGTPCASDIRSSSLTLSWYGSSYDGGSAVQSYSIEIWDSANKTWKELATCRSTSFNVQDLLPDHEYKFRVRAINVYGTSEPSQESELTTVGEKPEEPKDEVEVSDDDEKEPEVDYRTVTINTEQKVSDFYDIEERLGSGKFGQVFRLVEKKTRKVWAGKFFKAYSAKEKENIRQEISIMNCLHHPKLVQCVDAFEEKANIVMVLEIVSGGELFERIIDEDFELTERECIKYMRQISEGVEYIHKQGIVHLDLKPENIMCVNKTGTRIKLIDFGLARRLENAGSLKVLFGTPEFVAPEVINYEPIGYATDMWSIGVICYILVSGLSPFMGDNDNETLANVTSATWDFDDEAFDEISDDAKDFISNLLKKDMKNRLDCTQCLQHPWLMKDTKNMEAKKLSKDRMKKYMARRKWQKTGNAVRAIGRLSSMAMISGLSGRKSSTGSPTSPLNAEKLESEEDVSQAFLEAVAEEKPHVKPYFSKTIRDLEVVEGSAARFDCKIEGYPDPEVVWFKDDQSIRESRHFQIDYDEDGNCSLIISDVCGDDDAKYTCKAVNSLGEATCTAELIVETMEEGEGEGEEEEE

[36] = biological target: Angiotensin-converting enzyme 2 (Homo sapiens) (UniProt Q9BYF1); test: ACE-2 (h) Eurofins-Cerep enzyme and uptake assay; details: Compound concentration 10.0 uM
[37] = biological target: Stromelysin-1 (Homo sapiens) (UniProt P08254); test: MMP-3 (h) Eurofins-Cerep enzyme and uptake assay; details: Compound concentration 10.0 uM
[38] = biological target: Pro-cathepsin H (Homo sapiens) (UniProt P09668); test: Cathepsin H (h) Eurofins-Cerep enzyme and uptake assay; details: Compound concentration 10.0 uM
[39] = biological target: Cathepsin Z (Homo sapiens) (UniProt Q9UBR2); test: Cathepsin X (h) Eurofins-Cerep enzyme and uptake assay; details: Compound concentration 10.0 uM
[40] = biological target: Alpha-1B adrenergic receptor (Homo sapiens) (UniProt P35368); details: Compound concentration 10.0 uM
[41] = biological target: 5-hydroxytryptamine receptor 3A (Homo sapiens) (UniProt P46098); details: Compound concentration 10.0 uM
[42] = biological target: GABA-A receptor; anion channel (Rattus norvegicus) (UniProt O09028+P15431+P18506+P18508+P19969+P20236+P23574+P23576+P28471+P28473+P30191+P62813+P63079+P63138+Q91ZM7+Q9ES14); details: Compound concentration 10.0 uM
[43] = biological target: 5-hydroxytryptamine receptor 6 (Homo sapiens) (UniProt P50406); details: Compound concentration 10.0 uM
[44] = biological target: 5-hydroxytryptamine receptor 2C (Homo sapiens) (UniProt P28335); details: Compound concentration 10.0 uM
[45] = biological target: 5-hydroxytryptamine receptor 7 (Homo sapiens) (UniProt P34969); details: Compound concentration 10.0 uM
[46] = biological target: Histamine H3 receptor (Homo sapiens) (UniProt Q9Y5N1); details: Compound concentration 10.0 uM

For COc1ccc2c(O[C@@H]3C[C@H]4C(=O)N[C@]5(C(=O)O)CC5/C=C\CCCCC[C@H](NC(=O)OC5CCCC5)C(=O)N4C3)cc(-c3csc(NC(=O)C(C)C)n3)nc2c1C (stereo not given in full) [BI 1230], the Ki [1] was 4.49 µM, the % Inhibition of Control Values [2] was 48.2% and the % Inhibition of Control Values [3] was 54.8%. The % Inhibition of Control Values [4] was -6.2%, the inhibition [5] was -6.16% and the Ki [6] was 3.62 µM. It also gave a % Inhibition of Control Values [7] of 10.3%, an inhibition [8] of 17.4% and a % Inhibition of Control Values [9] of 23.4%. The % Inhibition of Control Values [10] was 63.7%, the inhibition [11] was 20.5% and the % Inhibition of Control Values [12] was 16.1%. The % Inhibition of Control Values [13] was 63%, the residual activity [14] was 100% and the % Inhibition of Control Values [15] was -23.1%. It also gave a % Inhibition of Control Values [16] of 6.9%, a % Inhibition of Control Values [17] of 73.8% and a % Inhibition of Control Values [18] of -16.8%. It also gave an inhibition [19] of 2.05%, an inhibition [20] of 4.88% and an inhibition [21] of 3.15%. The % Inhibition of Control Values [22] was 59.2%, the residual activity [23] was 74% and the % Inhibition of Control Values [24] was 90.6%. The % Inhibition of Control Values [25] was 4%, the % Inhibition of Control Values [26] was 29.8% and the Ki ([27]; read-out: Ki) was 3.29 µM. The Ki ([27]; read-out: pKi (converted)) was 3.24 µM, the % Inhibition of Control Values [28] was 27% and the % Inhibition of Control Values [29] was 21.2%. The % Inhibition of Control Values [30] was 125%, the % Inhibition of Control Values [31] was 2.6% and the % Inhibition of Control Values [32] was 23.1%. It also gave a % Inhibition of Control Values [33] of 14.3%, a % Inhibition of Control Values [34] of 281% and a residual activity [35] of 78%. It also gave a % Inhibition of Control Values [36] of -54.7%, a % Inhibition of Control Values [37] of 28% and a % Inhibition of Control Values [38] of -8.1%. For the same compound, the % Inhibition of Control Values [39] was 12.3%.
In the case of O=C(N[C@H]1CCCCC/C=C\C2C[C@@]2(C(=O)O)NC(=O)[C@@H]2C[C@@H](Oc3ccncc3)CN2C1=O)OC1CCCC1 (stereo not given in full) [BI 1675], the inhibition [40] is reported as -7.2%, the inhibition [41] is reported as -8.48% and the inhibition [42] is reported as -5.88%. For the same compound, the residual activity [14] was 82%, the inhibition [43] was -7.71% and the inhibition [44] was 7.99%. It also gave an inhibition [45] of -3.24%, a residual activity [23] of 46% and an inhibition [46] of 2.64%. It also gave a residual activity [35] of 100%.
